Measurements as given in the supplement of paper PMC13380429.

Columns and labels:
Settings in all cases: 72 h
Vero E6 [1] = test: cell viability relative to DMSO; higher = less toxic
U2OS [2] = test: as above
Calu-3 [3] = test: as above
HepG2 [4] = test: as above
Caco-2 [5] = test: as above
Vero E6 [6] = test: drug sensitivity score (DSS) for viability; higher = more toxic; extreme values may be limits of the assay
U2OS [7] = test: as above
Calu-3 [8] = test: as above
HepG2 [9] = test: as above
Caco-2 [10] = test: as above
Vero E6 [11] = test: relative viability EC50 (midpoint between 100% and the lowest measured viability); higher = less toxic
U2OS [12] = test: as above
Calu-3 [13] = test: as above
HepG2 [14] = test: as above
Caco-2 [15] = test: as above

Structure (SMILES) | cell viability (Vero E6 [1]; 1 nM) [%] | cell viability (Vero E6 [1]; 10 nM) [%] | cell viability (Vero E6 [1]; 100 nM) [%] | cell viability (Vero E6 [1]; 1000 nM) [%] | cell viability (Vero E6 [1]; 10000 nM) [%] | cell viability (U2OS [2]; 1 nM) [%] | cell viability (U2OS [2]; 10 nM) [%] | cell viability (U2OS [2]; 100 nM) [%] | cell viability (U2OS [2]; 1000 nM) [%] | cell viability (U2OS [2]; 10000 nM) [%] | cell viability (Calu-3 [3]; 1 nM) [%] | cell viability (Calu-3 [3]; 10 nM) [%] | cell viability (Calu-3 [3]; 100 nM) [%] | cell viability (Calu-3 [3]; 1000 nM) [%] | cell viability (Calu-3 [3]; 10000 nM) [%] | cell viability (HepG2 [4]; 1 nM) [%] | cell viability (HepG2 [4]; 10 nM) [%] | cell viability (HepG2 [4]; 100 nM) [%] | cell viability (HepG2 [4]; 1000 nM) [%] | cell viability (HepG2 [4]; 10000 nM) [%] | cell viability (Caco-2 [5]; 1 nM) [%] | cell viability (Caco-2 [5]; 10 nM) [%] | cell viability (Caco-2 [5]; 100 nM) [%] | cell viability (Caco-2 [5]; 1000 nM) [%] | cell viability (Caco-2 [5]; 10000 nM) [%] | drug sensitivity score (Vero E6 [6]) | drug sensitivity score (U2OS [7]) | drug sensitivity score (Calu-3 [8]) | drug sensitivity score (HepG2 [9]) | drug sensitivity score (Caco-2 [10]) | relative viability EC50 (Vero E6 [11]) [µM] | relative viability EC50 (U2OS [12]) [µM] | relative viability EC50 (Calu-3 [13]) [µM] | relative viability EC50 (HepG2 [14]) [µM] | relative viability EC50 (Caco-2 [15]) [µM]
CCN(CC)CCOc1ccc(Cc2ccccc2)cc1 [DPPE] | 108 | 103 | 107 | 103 | 96 | 98.8 | 104 | 100 | 104 | 96.5 | 96 | 89.7 | 100 | 101 | 96.6 | 112 | 98.4 | 107 | 91.2 | 94.4 | 100 | 101 | 96.7 | 105 | 84.6 | 0 | 0 | 0 | 0 | 0.1 | > 10 | > 10 | > 10 | > 10 | > 10
O=C1Cc2cc(CCN3CCN(c4nsc5ccccc45)CC3)c(Cl)cc2N1 [ziprasidone] | 106 | 105 | 95.8 | 104 | 98.4 | 101 | 99.4 | 100 | 98.9 | 96.4 | 103 | 97.8 | 91.9 | 97.4 | 108 | 105 | 120 | 102 | 103 | 83.8 | 100 | 90.5 | 98.3 | 102 | 75.6 | 0 | 0 | 0 | 0.2 | 0.8 | > 10 | > 10 | > 10 | > 10 | > 10
O=c1c(-c2ccccc2)c1-c1ccccc1 [diphencyprone] | 101 | 104 | 99.6 | 99.1 | 93.5 | 98.9 | 99.5 | 103 | 98 | 84.2 | 105 | 97.6 | 104 | 111 | 122 | 95.2 | 91.4 | 95.7 | 89.8 | 86 | 110 | 103 | 114 | 106 | 97.2 | 0 | 0.5 | 0 | 0.2 | 0 | > 10 | > 10 | > 10 | > 10 | > 10
NC(=O)CC[C@H](N)C(=O)O [L-glutamine] | 100 | 100 | 95 | 93 | 92.7 | 102 | 102 | 94.4 | 99.1 | 93 | 91.5 | 91.7 | 96.9 | 95 | 91.2 | 92.6 | 102 | 104 | 91.6 | 100 | 93.2 | 90.8 | 100 | 96.1 | 101 | 0 | 0 | 0 | 0 | 0 | > 10 | > 10 | > 10 | > 10 | > 10
NNC(=O)CN1C(=O)CN=C(c2ccccc2)c2cc(Br)ccc21 [gidazepam] | 99.3 | 102 | 93 | 94.1 | 102 | 96.5 | 92.2 | 96.8 | 91 | 97.5 | 104 | 99 | 100 | 110 | 98.5 | 106 | 92.2 | 109 | 106 | 106 | 95.8 | 92.7 | 94.4 | 90.2 | 95.7 | 0 | 0 | 0 | 0 | 0 | > 10 | > 10 | > 10 | > 10 | > 10
COc1c(C)cnc(Cn2cnc3c(Cl)nc(N)nc32)c1C [BIIB021] | 101 | 104 | 103 | 51.8 | 36.7 | 99.4 | 99.4 | 93.3 | 27.7 | 4.4 | 102 | 109 | 105 | 49.4 | 39.4 | 94 | 100 | 60.8 | 1.5 | 0.6 | 91 | 101 | 92.8 | 65.8 | 39.5 | 9.1 | 14.5 | 9.3 | 23.1 | 7.5 | 0.633 | 0.495 | 0.538 | 0.12 | 0.746
COC(=O)C1=C(C)NC(C)=C(C(=O)OCCN(C)Cc2ccccc2)C1c1cccc([N+](=O)[O-])c1 (stereo not given) [nicardipine] | 93.2 | 106 | 98.2 | 103 | 96.9 | 96.5 | 103 | 95.5 | 98.1 | 91.3 | 91.7 | 91.5 | 94.1 | 90.2 | 90.2 | 91.6 | 100 | 141 | 109 | 95.4 | 102 | 120 | 97.9 | 84.1 | 84.8 | 0 | 0 | 0 | 0 | 1.9 | > 10 | > 10 | > 10 | > 10 | > 10
COc1cc(CN2CCN(c3ccc(F)cc3)CC2)cc(OC)c1OC [V-51] | 95.9 | 96.5 | 100 | 98.3 | 106 | 100 | 103 | 94.8 | 98.6 | 102 | 81.8 | 95.7 | 106 | 105 | 105 | 100 | 98.1 | 93.2 | 100 | 98.8 | 94.8 | 94.4 | 93.6 | 83.5 | 97.8 | 0 | 0 | 0 | 0 | 0 | > 10 | > 10 | > 10 | > 10 | > 10
CC12CCC(C(=O)N(CCCCN3CCN(c4ccccn4)CC3)C1=O)C2(C)C (stereo not given) [piricapiron] | 97.2 | 99.8 | 101 | 93.5 | 104 | 101 | 103 | 99.1 | 101 | 95.6 | 100 | 105 | 101 | 93.2 | 85.9 | 106 | 101 | 101 | 102 | 97.6 | 87.3 | 99.7 | 96.5 | 98.1 | 93 | 0 | 0 | 0.6 | 0 | 0 | > 10 | > 10 | > 10 | > 10 | > 10
O=NO [sodium-nitrite] | 106 | 113 | 95.2 | 103 | 99.2 | 95.4 | 97.1 | 100 | 94.2 | 97.4 | 94.3 | 100 | 102 | 94.8 | 91.8 | 105 | 102 | 97.4 | 98 | 101 | 87.7 | 93.5 | 94 | 92.3 | 97.3 | 0 | 0 | 0 | 0 | 0 | > 10 | > 10 | > 10 | > 10 | > 10
COc1nc(C)nc(Cl)c1NC1=NCCN1 [moxonidine] | 102 | 100 | 93.2 | 94.5 | 106 | 98.7 | 101 | 97.1 | 102 | 99.3 | 96.2 | 93.5 | 90 | 101 | 97.5 | 103 | 101 | 99.3 | 104 | 95.5 | 97.1 | 95.6 | 95.8 | 105 | 88.7 | 0 | 0 | 0 | 0 | 0 | > 10 | > 10 | > 10 | > 10 | > 10
Nc1nc(=O)n([C@@H]2O[C@H](CO)[C@@H](O)[C@@H]2F)cc1I [fiacitabine] | 98.9 | 97.6 | 98.9 | 100 | 96.7 | 99.8 | 104 | 93.6 | 98.6 | 100 | 93.1 | 102 | 102 | 109 | 96 | 104 | 91.4 | 96.1 | 106 | 83.6 | 93.8 | 99.5 | 90.1 | 84.3 | 93.2 | 0 | 0 | 0 | 0.2 | 0.2 | > 10 | > 10 | > 10 | > 10 | > 10
O=C(O)c1ccccc1-c1ccc(C(F)(F)F)cc1 [xenalipin] | 98.6 | 104 | 92.2 | 98.6 | 98.2 | 100 | 95.8 | 103 | 98 | 105 | 101 | 101 | 111 | 98.6 | 107 | 89.1 | 90.8 | 94.6 | 97 | 109 | 97.1 | 92.8 | 99 | 92.1 | 97.6 | 0 | 0 | 0 | 0 | 0 | > 10 | > 10 | > 10 | > 10 | > 10
C/C(O)=C(\C#N)C(=O)Nc1ccc(C(F)(F)F)cc1 [teriflunomide] | 102 | 101 | 97.1 | 98.2 | 93.9 | 102 | 98 | 102 | 99.8 | 99.7 | 104 | 97.2 | 95.3 | 105 | 94.2 | 104 | 107 | 93.4 | 98.1 | 94.4 | 98.1 | 98.2 | 102 | 95.1 | 94.1 | 0 | 0 | 0 | 0 | 0 | > 10 | > 10 | > 10 | > 10 | > 10
O=C(O)CC[C@H]1CC[C@@](c2cc(F)ccc2F)(S(=O)(=O)c2ccc(Cl)cc2)CC1 [MK-0752] | 96 | 99.7 | 94.5 | 95.5 | 103 | 94.9 | 105 | 96 | 102 | 97.9 | 96.3 | 96.3 | 100 | 101 | 97.8 | 100 | 96.1 | 98.9 | 92.6 | 108 | 96.5 | 106 | 98.2 | 99.2 | 99.5 | 0 | 0 | 0 | 0 | 0 | > 10 | > 10 | > 10 | > 10 | > 10
